Data set [1] can be described thus: Cumulative urinary and fecal excretion of radioactivity over 48 hours. The format is in vivo. As to conditions: rats, 10 mg/kg i.v., rank among the three oligonucleotides. On the procedure:
(§1) A dose of 10 mg/kg of [^35S]-labeled PS-oligonucleotide was administered intravenously (i.v.) to rats (Wistar rats from Charles River, Wilmington, Mass.). Following administration, plasma was collected after 5, 15 and 30 minutes and after 1, 3, 6, 12, 24 and 48 hours. Radioactivity levels were measured to monitor plasma clearance at each time point. Following administration of PS-oligonucleotide, animals (3 rats/group) were sacrificed at 12, 24 and 48 hours. The following tissues were removed and homogenized: muscle, lung, liver, kidney, and spleen. Radioactive levels were measured, to monitor tissue distribution of each of the oligonucleotides. To follow the excretion of PS-oligonucleotides, urine and feces were collected using metabolism cages at 0-3, 3-6, 6-12, 12-24 and 24-48 hour intervals and radioactivity levels were measured using the methods previously reported (Zhang, et al., Biochem. Pharmacol., 49: 929-939 (1995)).
FIGS. 9 and 10 show the cumulative excretion of urinary and fecal radioactivity over 48 hours following administration of radiolabeled oligonucleotides. Urinary excretion represented the major pathway of elimination. […] Oligonucleotide HYB0411 had the lowest urinary excretion rate and Oligonucleotide HYB0413 had the highest urinary excretion rate. Fecal excretion was a minor pathway of elimination (FIG. 11); Oligonucleotide HYB0413 had the highest fecal excretion rate.

Data set [2] in a line: Tissue distribution of radioactivity after i.v. bolus administration of radiolabeled oligonucleotides. It is filed as in vivo. As to conditions: rats.
Source text: (§2) To carry out pharmacokinetic studies, [^35S]-labeled PS-oligonucleotides were synthesized using phosphoramidite chemistry; the intermediate phosphite linkage was oxidized with [^35S8] to incorporate [^35S]. (Agrawal, et al., Synthetic Methods for the Radioisotopic Labeling of Oligonucleotides, in: Antisense Oligonucleotide from Technology to Therapy (Schlingensiepen, ed.) Blackwell, Berlin, pp. 60-77 (1996)). [^35S] was incorporated at the fifth (oligonucleotide HYB0411) or fourth (oligonucleotide HYB0412 and HYB0413) internucleotide linkage.
as §1
The oligonucleotide-equivalent concentrations of radioactivity in tissues after i.v. bolus administration of radiolabeled oligonucleotides to rats are shown in FIGS. 4-8. […] Significant differences in distribution pattern were found among the three oligonucleotides. […] Oligonucleotide HYB0411 had the highest kidney concentration: 40% higher than that of Oligonucleotides HYB0412 and HYB0413.

A short description of data set [3]: Plasma pharmacokinetics of [35S]-labeled PS-oligonucleotides after i.v. bolus administration. The format is in vivo. The settings on record: rats, 10 mg/kg i.v.; for maximum plasma concentration (Cmax): radioactivity, compared with Oligonucleotide HYB0413.
Source text: as §2, §1
FIG. 3 illustrates the plasma concentration-time courses of oligonucleotide equivalents after i.v. bolus administration of radiolabeled oligonucleotides into rats, based on quantification of radioactivity. As shown in previous studies (Agrawal, et al., Clin. Pharm. 28:7-16 (1995); Zhang, et al., Biochem. Pharmacol., 49: 929-939 (1995)), PS-oligonucleotides rapidly clear from the plasma. […] No significant difference in plasma elimination half-life (t½β) was observed.

Data set [4] can be described thus: Chemical forms of radioactivity in tissues by polyacrylamide gel electrophoresis (in vivo stability). As to conditions: rats.

On to “5′-CTCTCGCACCCATCTCTCTCCTTCT-3′ [Oligonucleotide HYB0413, reference compound]”, for which, in data set [1], the fecal excretion rate entry is on record as “highest” and the urinary excretion rate entry is “highest”. Also, the lung concentration entry in data set [2] (10 mg/kg i.v., compared with HYB0411 and HYB0412) was “significantly higher concentrations”. For the same substance, the “tissue concentrations in the tissues examined (in general)” value in data set [2] (10 mg/kg i.v., comparison among the three oligonucleotides) was “different from those of Oligonucleotide HYB0411 and Oligonucleotide HYB0412”. In data set [2] (12 hours after dosing, compared with HYB0411 and HYB0412, data not shown), the bone marrow concentration result is on record as “higher concentrations”.

With “5′-CTCTCGCACCCATCTCTCTCCTTCTGGGG-3′ (all phosphorothioate, sugars by position and methylation of C not given here) [Oligonucleotide HYB0411]”, in data set [3], the “maximum plasma concentration (Cmax)” value is “significantly higher”. In addition, in data set [3] (compared with Oligonucleotides HYB0412 and HYB0413), the “distribution half-life (t½α)” value is on record as “shorter”. In addition, in data set [1], the urinary excretion rate result is “lowest”. Besides, the “degradation in the kidney” value in data set [4] (kidney tissue, PAGE after 5'-post labeling) was “time-dependent degradation”. Moreover, the “liver concentration, higher than Oligonucleotide HYB0413” value in data set [2] (10 mg/kg i.v.) is “approximately 50%”. For the same substance, the “kidney concentration, higher than that of Oligonucleotides HYB0412 and HYB0413” value in data set [2] (10 mg/kg i.v., highest kidney concentration) was determined as 40%.

Turning to “5′-CTCTCGCACCCATCTCTCTCCTTCTGTGT-3′ [Oligonucleotide HYB0412]”, the “maximum plasma concentration (Cmax)” value in data set [3] was “significantly higher”. Further, in data set [4] (b74 compared with Oligonucleotide HYB0411, b75 compared with control oligonucleotide), the in vivo stability result is recorded as “superior in vivo stability”. The absorption entry in data set [4] (compared with Oligonucleotide HYB0411) is “greater absorption”. For the same substance, the “liver concentration, higher than Oligonucleotide HYB0413” value in data set [2] (10 mg/kg i.v.) is given as “approximately 50%”.

The values are drawn from US6489304B2, “Hyperstructure-forming carriers” (Hybridon, Inc., priority 1997, dated 2002).
